In test [1] the target is FGFR1-BCR Ba/F3 cells (Homo sapiens, UniProt P11362). Put plainly: Ba/F3 cell viability assay (CellTiter-Glo 2.0), FGFR1-BCR Ba/F3. Type of test: cell-based. The note with it: read-out: Ba/F3 Cells FGFR1 (IC50 nM), 48 hours, Cell Titer Glo 2.0. The method in brief:
(§1)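 Viability read as ATP luminescence (CellTiter-Glo 2.0) after 48 h compound exposure, normalized to DMSO-treated cells and fitted with a 4-parameter curve for IC50. Cells: Ba/F3 dependent on FGFR1-BCR or FGFR3-BAIAP2L1 fusion kinase; top dose 30 μM, 10-fold steps, 9 doses in triplicate.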
A general note: In ATP-based viability assays light output follows the ATP content of the culture.

The target of test [2] is FGFR3-BAIAP2L1 Ba/F3 cells (Homo sapiens, UniProt P22607). The test is described as follows: Ba/F3 cell viability assay (CellTiter-Glo 2.0), FGFR3-BAIAP2L1 Ba/F3. The following applies: for Ba/F3 FGFR1/FGFR3 Selectivity: FGFR3 > FGFR1 selectivity ratio in Ba/F3 FGFR fusion cell based assays; for IC50: read-out: Ba/F3 Cells FGFR3 (IC50 nM), FGFR3-BAIAP2L1 Ba/F3 cells, 48 hours, Cell Titer Glo 2.0. Format: cell-based. The method in brief: as §1
Chain of FGFR3-BAIAP2L1 Ba/F3 cells (P22607 23-806 limits assumed, change not shown): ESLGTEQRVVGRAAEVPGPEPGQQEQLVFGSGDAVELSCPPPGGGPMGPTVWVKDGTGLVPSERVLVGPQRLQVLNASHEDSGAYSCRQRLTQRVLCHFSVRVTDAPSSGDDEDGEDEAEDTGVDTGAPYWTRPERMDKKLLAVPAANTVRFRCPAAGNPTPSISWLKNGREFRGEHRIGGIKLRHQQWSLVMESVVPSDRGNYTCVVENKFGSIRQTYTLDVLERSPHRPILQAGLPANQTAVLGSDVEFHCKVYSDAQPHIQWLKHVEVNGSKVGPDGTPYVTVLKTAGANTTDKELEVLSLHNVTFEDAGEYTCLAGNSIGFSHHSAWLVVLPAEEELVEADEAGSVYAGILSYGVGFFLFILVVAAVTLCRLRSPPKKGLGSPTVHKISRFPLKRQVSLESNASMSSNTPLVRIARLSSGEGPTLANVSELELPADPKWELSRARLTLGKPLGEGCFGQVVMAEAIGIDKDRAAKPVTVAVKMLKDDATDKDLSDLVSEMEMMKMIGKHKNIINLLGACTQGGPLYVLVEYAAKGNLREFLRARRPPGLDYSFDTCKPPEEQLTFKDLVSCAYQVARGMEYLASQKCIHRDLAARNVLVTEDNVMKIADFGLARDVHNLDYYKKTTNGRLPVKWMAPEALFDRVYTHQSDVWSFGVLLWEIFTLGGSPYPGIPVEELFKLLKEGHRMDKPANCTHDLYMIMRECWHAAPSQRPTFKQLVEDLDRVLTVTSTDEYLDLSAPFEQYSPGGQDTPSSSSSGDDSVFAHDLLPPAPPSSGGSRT

The target of test [3] is FGFR3 (V555M) (Homo sapiens (Human), UniProt P22607, V555M). The test is described as follows: Kinase assay, binding constants (Kd), kinase-tagged T7 phage, qPCR. The following applies: V555M mutant. An outline of the steps:
(§2)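 Using T7 phage lysates from BL21-derived E. coli, compounds at 0.9% final DMSO competed for kinase binding to ligand-bearing magnetic beads. After elution, qPCR measured remaining kinase, and Kds were fitted by non-linear least squares with the Hill slope fixed at −1.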
A general note: Quantitative PCR measures a nucleic acid by following its amplification.

Test [4] concerns the target FGFR2 (Homo sapiens (Human), UniProt P21802). The test is described as above. The method in brief:
as §2

Test [5] concerns the target FGFR4 (Homo sapiens (Human), UniProt P22455). Described as above. An outline of the steps:
as §2

Test [6] deals with FGFR3 (Homo sapiens (Human), UniProt P22607). Described as above. An outline of the steps:
as §2

Test [7] deals with FGFR1 (Homo sapiens (Human), UniProt P11362). The description is as above. An outline of the steps: as §2
Chain of FGFR1 (P11362 22-822): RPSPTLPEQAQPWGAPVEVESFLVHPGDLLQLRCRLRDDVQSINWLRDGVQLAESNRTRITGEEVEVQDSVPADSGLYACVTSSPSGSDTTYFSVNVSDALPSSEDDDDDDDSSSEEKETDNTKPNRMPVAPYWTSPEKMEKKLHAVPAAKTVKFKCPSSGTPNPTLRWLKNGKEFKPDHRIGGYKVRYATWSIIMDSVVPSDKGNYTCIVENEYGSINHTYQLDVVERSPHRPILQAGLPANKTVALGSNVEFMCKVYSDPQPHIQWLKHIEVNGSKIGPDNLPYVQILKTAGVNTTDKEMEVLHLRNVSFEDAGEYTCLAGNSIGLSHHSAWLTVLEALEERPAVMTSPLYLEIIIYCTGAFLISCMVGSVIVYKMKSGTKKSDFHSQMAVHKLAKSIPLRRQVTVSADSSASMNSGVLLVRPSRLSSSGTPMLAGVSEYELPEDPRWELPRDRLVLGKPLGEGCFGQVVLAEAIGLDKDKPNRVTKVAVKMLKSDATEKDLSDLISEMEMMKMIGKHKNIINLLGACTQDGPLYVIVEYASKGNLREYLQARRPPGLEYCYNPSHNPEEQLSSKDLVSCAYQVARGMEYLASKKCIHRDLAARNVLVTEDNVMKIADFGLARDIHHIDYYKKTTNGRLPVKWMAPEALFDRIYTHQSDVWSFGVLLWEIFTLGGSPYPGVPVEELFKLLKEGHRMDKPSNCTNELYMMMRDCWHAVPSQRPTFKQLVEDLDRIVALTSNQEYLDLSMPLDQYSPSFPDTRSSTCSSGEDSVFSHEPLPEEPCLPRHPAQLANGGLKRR
Test [8] has as its system KG-1 cells (FGFR1-fusion). The test is described as follows: KG-1 cancer cell line cell viability assay (CellTiter-Glo 2.0). Format: cell-based. The following applies: Homo sapiens, 72 hours, Cell Titer Glo 2.0. The source says: (§3) Experimental Purpose: To detect the change of intracellular ATP by Cell Titer-Glo® and to evaluate the inhibitory effect of the compounds on cancer cell lines by determining the in vitro IC50 value of the compounds.
(§4) Cell Titer-Glo® 2.0 Luminescent cell viability assay reagent was purchased from Promega (Madison, WI). RT112/84 and KG-1 cell lines were purchased from American Type Culture Collection (Manassas, VA). UM-UC-14 cell line was purchased from Sigma (St. Louis, MO). RT112/84, UM-UC-14, and KG-1 cells were cultured in RPMI1640 media supplemented with 10% fetal bovine serum. Cultures were maintained at 37° C. in a humidified atmosphere of 5% C02 and 95% air.
(§5) Cell Viability Assay Procedure: Cells were plated in 96-well clear bottom/white plates (Corning #3903) at 10,000 cells/well in 100 μl of media, incubated overnight. The next day, test compound DMSO stock solutions were made at 10 mM and 2 μM final concentration. Compounds were then added to cells in a 9-dose, 10-fold dilution series starting at 30 μM with an HP 300e Digital Dispenser (each dose was applied in triplicate). DMSO was backfilled to each well up to 301 nL total volume of test compound+DMSO, and a total of 301 nL DMSO was added to a control/no test compound well in triplicate. The cells in cell culture plates were incubated with the compounds at 37° C. and 5% C02 for 72 hours. Then 50 μl of Cell Titer Glo 2.0 reagent was added to each well of the cell culture plates. The contents were covered from light and mixed on an orbital shaker at room temperature for 10 min. Luminescence was recorded by a Synergy H1 Microplate Reader (Biotek, Winooski, VT). Cells were assessed as a percentage of DMSO only treated control cells. Curves were plotted and IC50 values were calculated using the GraphPad Prism 8 program based on a sigmoidal dose-response equation (4 parameter).

Test [9] concerns RT112/84 cells (FGFR3-fusion). Put plainly: RT112/84 cancer cell line cell viability assay (CellTiter-Glo 2.0). Type of test: cell-based. The following applies: Homo sapiens, 72 hours, Cell Titer Glo 2.0.
Text: as §3, §4, §5

In general, Kd refers to the concentration at which binding is half-saturated.

Structures are written as SMILES.

Chain of FGFR4 (P22455 22-802): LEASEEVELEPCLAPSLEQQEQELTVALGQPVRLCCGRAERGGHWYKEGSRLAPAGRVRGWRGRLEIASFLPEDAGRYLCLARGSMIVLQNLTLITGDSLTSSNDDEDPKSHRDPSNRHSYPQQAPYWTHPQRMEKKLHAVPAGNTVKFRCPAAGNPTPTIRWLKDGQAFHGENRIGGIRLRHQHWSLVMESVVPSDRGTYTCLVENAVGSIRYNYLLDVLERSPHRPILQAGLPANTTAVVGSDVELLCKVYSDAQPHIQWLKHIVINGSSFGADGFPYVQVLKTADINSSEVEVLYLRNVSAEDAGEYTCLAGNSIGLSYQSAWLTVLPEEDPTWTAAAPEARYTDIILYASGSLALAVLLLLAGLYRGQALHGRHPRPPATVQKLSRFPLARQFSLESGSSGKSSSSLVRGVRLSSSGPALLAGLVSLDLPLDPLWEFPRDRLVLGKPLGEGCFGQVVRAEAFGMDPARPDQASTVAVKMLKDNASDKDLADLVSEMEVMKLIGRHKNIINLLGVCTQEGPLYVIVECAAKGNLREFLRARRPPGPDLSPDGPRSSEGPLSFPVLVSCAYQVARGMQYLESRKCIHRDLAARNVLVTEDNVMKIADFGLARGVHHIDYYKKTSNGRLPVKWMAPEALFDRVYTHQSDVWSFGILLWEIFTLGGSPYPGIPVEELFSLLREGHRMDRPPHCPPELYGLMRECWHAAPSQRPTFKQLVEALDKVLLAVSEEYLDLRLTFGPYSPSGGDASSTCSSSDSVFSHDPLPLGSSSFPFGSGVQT
Chain of FGFR1-BCR Ba/F3 cells (P11362 22-822 limits assumed, change not shown): as the sequence (P11362 22-822) above
Chain of FGFR2 (P21802 22-821): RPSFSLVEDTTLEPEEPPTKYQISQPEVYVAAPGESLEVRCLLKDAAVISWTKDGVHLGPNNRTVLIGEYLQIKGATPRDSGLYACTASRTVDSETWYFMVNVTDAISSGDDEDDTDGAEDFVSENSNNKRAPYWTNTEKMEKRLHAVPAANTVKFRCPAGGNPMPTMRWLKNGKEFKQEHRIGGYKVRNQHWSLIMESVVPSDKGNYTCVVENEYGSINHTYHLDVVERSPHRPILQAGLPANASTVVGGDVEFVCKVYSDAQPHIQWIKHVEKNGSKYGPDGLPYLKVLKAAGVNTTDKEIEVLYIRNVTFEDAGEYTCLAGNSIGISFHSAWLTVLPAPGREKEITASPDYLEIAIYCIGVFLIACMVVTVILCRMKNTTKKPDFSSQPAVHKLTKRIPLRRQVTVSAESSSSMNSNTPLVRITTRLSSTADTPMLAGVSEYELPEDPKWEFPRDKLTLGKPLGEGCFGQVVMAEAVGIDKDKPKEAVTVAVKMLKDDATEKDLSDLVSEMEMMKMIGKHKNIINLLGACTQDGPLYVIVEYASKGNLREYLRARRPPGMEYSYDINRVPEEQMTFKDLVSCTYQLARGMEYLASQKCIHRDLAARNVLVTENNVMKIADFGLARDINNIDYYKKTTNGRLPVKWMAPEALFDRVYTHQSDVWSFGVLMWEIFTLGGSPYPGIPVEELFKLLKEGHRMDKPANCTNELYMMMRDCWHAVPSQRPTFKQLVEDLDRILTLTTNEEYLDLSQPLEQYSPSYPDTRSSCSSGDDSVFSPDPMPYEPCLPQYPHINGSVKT
Chain of FGFR3 (P22607 23-806): as the sequence (P22607 23-806 limits assumed, change not shown) above
Chain of FGFR3 (V555M) (P22607 23-806 V555M): as the sequence (P22607 23-806 limits assumed, change not shown) above, with V533M counted along it

On to `Cc1ncc(Cl)c([C@@H](C)Oc2ccc3[nH]nc(-c4ccc(N5CC6(C5)CN(S(C)(=O)=O)C6)nc4)c3c2)c1Cl` [Example 107, 5-[(1R)-1-(3,5-dichloro-2-methyl-4-pyridyl)ethoxy]-3-[6-(2-methylsulfonyl-2,6-diazaspiro[3.3]heptan-6-yl)-3-pyridyl]-1H-indazole], for which the IC50 in test [1] lay in the range of 100 to 300 nM; in test [2], 1 to 20 nM; in [8], 100 to 300 nM; in test [9], 20 to 100 nM. Also, the “Ba/F3 FGFR1/FGFR3 Selectivity” value in test [2] is given as 16. Besides, the Kd in test [3] is 1 to 20 nM; in test [4] it was 20 to 100 nM; in test [5], 1 to 20 nM; in [6] it was 1 to 20 nM; in test [7], 20 to 100 nM.
On to `CC(Oc1ccc2[nH]nc(-c3ccc(N4CC5(C4)CN(S(C)(=O)=O)C5)nc3)c2c1)c1c(Cl)ccnc1Cl` (stereo not shown) [Example 109, 5-[1-(2,4-dichloro-3-pyridyl)ethoxy]-3-[6-(2-methylsulfonyl-2,6-diazaspiro[3.3]heptan-6-yl)-3-pyridyl]-1H-indazole], for which the IC50 in test [1] lay in the range of 100 to 300 nM; in test [2] it was 1 to 20 nM; in [8], 100 to 300 nM; in [9], 20 to 100 nM. For the same compound, the “Ba/F3 FGFR1/FGFR3 Selectivity” value in test [2] is 12. The Kd in [3] was 1 to 20 nM; in test [4], 1 to 20 nM; in [5], 1 to 20 nM; in test [6], 1 to 20 nM; in test [7], 20 to 100 nM.
Consider `C[C@@H](Oc1ccc2[nH]nc(-c3ccc(N4CC5(CCN(S(C)(=O)=O)C5)C4)nc3)c2c1)c1c(Cl)cncc1Cl` [Example 115, 5-[(1R)-1-(3,5-dichloro-4-pyridyl)ethoxy]-3-[6-(7-methylsulfonyl-2,7-diazaspiro[3.4]octan-2-yl)-3-pyridyl]-1H-indazole], for which the IC50 in test [1] was 20 to 100 nM; in [2], 1 to 20 nM; in test [8] it was 100 to 300 nM; in test [9], 1 to 20 nM. For the same compound, the “Ba/F3 FGFR1/FGFR3 Selectivity” value in [2] is listed as 14. The Kd in test [3], in test [4], in test [5], in [6] and in [7] was 1 to 20 nM in each case.
In the case of `C[C@@H](Oc1ccc2[nH]nc(-c3ccc(N4CC5(CCS(=O)(=O)C5)C4)nc3)c2c1)c1c(Cl)cncc1Cl` [Example 117, 2-[5-[5-[(1R)-1-(3,5-dichloro-4-pyridyl)ethoxy]-1H-indazol-3-yl]-2-pyridyl]-6λ^6-thia-2-azaspiro[3.4]octane 6,6-dioxide], the IC50 in test [1] is 20 to 100 nM; in test [2], 1 to 20 nM; in test [8], 20 to 100 nM; in test [9], 1 to 20 nM. Moreover, the “Ba/F3 FGFR1/FGFR3 Selectivity” value in test [2] turned out to be 15. For the same compound, the Kd in test [3], in test [4], in test [5], in test [6] and in [7] was 1 to 20 nM in each case.
With `C[C@@H](Oc1ccc2[nH]nc(-c3cnc(N4CC5(C4)CN(S(C)(=O)=O)C5)nc3)c2c1)c1c(Cl)cncc1Cl` [Example 119, 5-[(1R)-1-(3,5-dichloro-4-pyridyl)ethoxy]-3-[2-(2-methylsulfonyl-2,6-diazaspiro[3.3]heptan-6-yl)pyrimidin-5-yl]-1H-indazole], the IC50 in [1] was 20 to 100 nM; in test [2] it was 1 to 20 nM; in test [8], 100 to 300 nM; in [9] it was 20 to 100 nM. Further, the “Ba/F3 FGFR1/FGFR3 Selectivity” value in test [2] came to 9. The Kd in [3] lay within 1 to 20 nM; in [4], 20 to 100 nM; in test [5], 1 to 20 nM; in [6], 1 to 20 nM; in test [7] it was 20 to 100 nM.
As to `CC(C)S(=O)(=O)N1CC2(CN(c3ncc(-c4n[nH]c5ccc(O[C@H](C)c6c(Cl)cncc6Cl)cc45)cn3)C2)C1` [Example 120, 5-[(1R)-1-(3,5-dichloro-4-pyridyl)ethoxy]-3-[2-(2-isopropylsulfonyl-2,6-diazaspiro[3.3]heptan-6-yl)pyrimidin-5-yl]-1H-indazole], the IC50 in [1] is 100 to 300 nM; in test [2], 20 to 100 nM; in [8] it was > 300 nM; in test [9] it was 20 to 100 nM. In addition, the “Ba/F3 FGFR1/FGFR3 Selectivity” value in test [2] is reported as 7. In addition, the Kd in [3] is 1 to 20 nM; in test [4], 20 to 100 nM; in test [5], 1 to 20 nM; in test [6], 1 to 20 nM; in test [7], 20 to 100 nM.
Regarding `CCOC(=O)N1CC2(C1)CN(c1ccc(-c3n[nH]c4ccc(O[C@H](C)c5c(Cl)cncc5Cl)cc34)cn1)C2` [Example 121, ethyl 6-[5-[5-[(1R)-1-(3,5-dichloro-4-pyridyl)ethoxy]-1H-indazol-3-yl]-2-pyridyl]-2,6-diazaspiro[3.3]heptane-2-carboxylate], the IC50 fell in the range of 100 to 300 nM in [1], 1 to 20 nM in test [2], 100 to 300 nM in test [8] and 1 to 20 nM in [9]. Besides, the “Ba/F3 FGFR1/FGFR3 Selectivity” value in test [2] is listed as 14. Moreover, the Kd in [3] lay in the range of 1 to 20 nM; in [4] it was 20 to 100 nM; in test [5], 1 to 20 nM; in [6] it was 1 to 20 nM; in test [7], 20 to 100 nM.
In the case of `C[C@@H](Oc1ccc2[nH]nc(-c3cnc(N4CC5(CCS(=O)(=O)C5)C4)nc3)c2c1)c1c(Cl)cncc1Cl` [Example 122, 2-[5-[5-[(1R)-1-(3,5-dichloro-4-pyridyl)ethoxy]-1H-indazol-3-yl]pyrimidin-2-yl]-6λ^6-thia-2-azaspiro[3.4]octane 6,6-dioxide], the IC50 is 20 to 100 nM in test [1], 1 to 20 nM in test [2], 100 to 300 nM in test [8] and 1 to 20 nM in [9]. For the same compound, the “Ba/F3 FGFR1/FGFR3 Selectivity” value in test [2] was found to be 7. The Kd in test [3] was in the range of 1 to 20 nM; in [4], 20 to 100 nM; in [5], 1 to 20 nM; in test [6], 1 to 20 nM; in test [7], 1 to 20 nM.
Regarding `COC(=O)N1CC2(C1)CN(c1ccc(-c3n[nH]c4ccc(O[C@H](C)c5c(Cl)cncc5Cl)cc34)cn1)C2` [Example 123, methyl 6-[5-[5-[(1R)-1-(3,5-dichloro-4-pyridyl)ethoxy]-1H-indazol-3-yl]-2-pyridyl]-2,6-diazaspiro[3.3]heptane-2-carboxylate], the IC50 was 20 to 100 nM in test [1], 1 to 20 nM in test [2], 100 to 300 nM in [8] and 1 to 20 nM in test [9]. In addition, the “Ba/F3 FGFR1/FGFR3 Selectivity” value in test [2] was found to be 15. Besides, the Kd in [3], in [4], in [5], in test [6] and in [7] was 1 to 20 nM each time.
As for `CCS(=O)(=O)N1CC2(CN(c3ccc(-c4n[nH]c5ccc(O[C@H](C)c6c(Cl)cncc6Cl)cc45)cn3)C2)C1` [Example 124, 5-[(1R)-1-(3,5-dichloro-4-pyridyl)ethoxy]-3-[6-(2-ethylsulfonyl-2,6-diazaspiro[3.3]heptan-6-yl)-3-pyridyl]-1H-indazole], the IC50 in test [1] lay in the range of 100 to 300 nM; in test [2], 1 to 20 nM; in test [8] it was 100 to 300 nM; in [9] it was 1 to 20 nM. For the same compound, the “Ba/F3 FGFR1/FGFR3 Selectivity” value in [2] is given as 17. The Kd in test [3] lay in the range of 1 to 20 nM; in test [4] it was 20 to 100 nM; in test [5], 1 to 20 nM; in test [6], 1 to 20 nM; in [7], 20 to 100 nM.

(Values after patent US20240109865A1, “INDAZOLE COMPOUNDS AS KINASE INHIBITORS” (TYRA BIOSCIENCES, INC., priority 2020, published 2024).)
